Assay results taken from patent US20100086519A1, “Treatment of Hepatitis C Infection With Metalloporphyrins” (The Charlotte-Mecklenburg Hospital Authority d/b/a …, priority 2008, published 2010).

Experiments:
[1] = test system: HCV replicon RNA; test: HCV RNA by qRT-PCR in Con1 full-length HCV replicon Huh-7.5 cells; assay type: cell-based, hepatitis C virus; conditions: different concentrations, 24 hours, FIG. 7A
Protocol: Bartenschlager (University of Heidelberg, Heidelberg, Germany).
(§1) Total RNA from treated cells was extracted and cDNA was synthesized as described in Hou et al. Real time quantitative RT-PCR was performed using a MyiQ™ Single Color Real-Time PCR Detection System from Bio-Rad (Hercules, Calif.) and iQ™ SYBR Green Supermix Real-Time PCR kit (Bio-Rad). Samples without template and without reverse transcriptase were included as negative controls, which, as expected, produced negligible signals (Ct values>35). Fold-change values were calculated by comparative Ct analysis after normalizing for the quantity of GAPDH in the same samples.
Total RNA and proteins were extracted.

[2] = biological target: T1, HCV NS5A protein (Hepatitis C virus genotype 2a, UniProt Q99IB8); test: NS5A protein levels in Huh-7.5 cells transfected with J6/JFH1 RNA; assay type: cell-based; conditions: J6/JFH1 RNA transfected Huh-7.5 cells, 4 or 24 h, FIGS. 8A-8D
T1 construct: processed into structural (C, E1, E2) and nonstructural (NS2, NS3, NS4A, NS4B, NS5A and NS5B) proteins; expressed in transfected cells; host or cells: Huh-7.5 cells transfected with in vitro transcribed J6/JFH1 RNA
T1 sequence (Q99IB8 1977-2442): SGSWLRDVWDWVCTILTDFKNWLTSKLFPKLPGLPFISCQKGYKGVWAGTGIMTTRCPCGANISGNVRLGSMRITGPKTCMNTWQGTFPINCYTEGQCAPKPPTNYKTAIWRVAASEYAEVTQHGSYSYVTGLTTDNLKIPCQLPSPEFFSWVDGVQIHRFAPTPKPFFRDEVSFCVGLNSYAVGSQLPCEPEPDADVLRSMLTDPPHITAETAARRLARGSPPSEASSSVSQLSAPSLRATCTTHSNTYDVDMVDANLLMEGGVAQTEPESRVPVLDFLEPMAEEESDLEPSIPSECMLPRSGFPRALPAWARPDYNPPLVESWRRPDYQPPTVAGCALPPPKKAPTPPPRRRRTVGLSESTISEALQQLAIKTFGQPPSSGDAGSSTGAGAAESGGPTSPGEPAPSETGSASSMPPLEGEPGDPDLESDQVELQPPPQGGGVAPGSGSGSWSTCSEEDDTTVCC
Source text: Biochim Biophys Acta 2008; 1779:195-203.
(§2) Rice (the Rockefeller University, New York, N.Y.).

[3] = test system: J6/JFH1 HCV; test: HCV RNA by qRT-PCR in Huh-7.5 cells infected with J6/JFH1 HCV; assay type: cell-based, hepatitis C virus; conditions: 10 μM, FIG. 8F
Protocol: as §2, §1

[4] = test system: HCV core protein; conditions: Huh-7/T7 cells, pFK-Con1/GDD, FIG. 7D; much less than in Con1 replicon system
Protocol: In brief, total proteins (30-50 μg) were separated on 4-15% gradient SDS-PAGE gels. After electrophoretic transfer onto ImmunBlot PVDF membrane, membranes were blocked for 1 hour in PBS containing 5% nonfat dry milk and 0.1% Tween-20, and then incubated overnight with primary antibody at 4° C. The dilutions of the primary antibodies were as follows: 1:2000 for anti-HCV NS5A and anti-GAPDH antibodies, and 1:5000 for anti-HCV core antibody. The membranes were then incubated for 1 hour with horseradish peroxidase-conjugated secondary antibodies (dilution 1:10,000). Finally, the bound antibodies were visualized with the ECL-Plus chemiluminescence system according to the manufacturer's protocol. A Kodak 1DV3.6 computer-based imaging system (Rochester, N.Y.) was used to measure the relative optical density of each specific band obtained after Western blotting. Data are expressed as percentages of the controls (corresponding to the value obtained with the vehicle-treated cells), which were assigned values of one. […]
To evaluate whether ZnMP-mediated degradation of NS5A may play a role in inhibiting HCV replication, Con1 full-length HCV replicon Huh-7.5 cells were treated with different concentrations of ZnMP for 24 hours. […] HCV virus RNA was quantified by qRT-PCR, and the levels of HCV core, NS5A and GAPDH protein were measured by Western blots. […]

[5] = biological target: HCV NS5A protein (Hepatitis C virus genotype 1b, UniProt Q9WMX2); test: polyubiquitination of NS5A by immunoprecipitation and immunoblot in 9-13 cells; assay type: cell-based; parameters: processed into structural (C, E1, E2) and nonstructural (NS2, NS3, NS4A, NS4B, NS5A and NS5B) proteins; expressed in transfected cells; host or cells: 9-13 cells (human hepatoma cells with a replicating HCV NS3-NS5B region)
Chain of HCV NS5A protein (Hepatitis C virus genotype 1b, UniProt Q9WMX2) (Q9WMX2 1973-2419): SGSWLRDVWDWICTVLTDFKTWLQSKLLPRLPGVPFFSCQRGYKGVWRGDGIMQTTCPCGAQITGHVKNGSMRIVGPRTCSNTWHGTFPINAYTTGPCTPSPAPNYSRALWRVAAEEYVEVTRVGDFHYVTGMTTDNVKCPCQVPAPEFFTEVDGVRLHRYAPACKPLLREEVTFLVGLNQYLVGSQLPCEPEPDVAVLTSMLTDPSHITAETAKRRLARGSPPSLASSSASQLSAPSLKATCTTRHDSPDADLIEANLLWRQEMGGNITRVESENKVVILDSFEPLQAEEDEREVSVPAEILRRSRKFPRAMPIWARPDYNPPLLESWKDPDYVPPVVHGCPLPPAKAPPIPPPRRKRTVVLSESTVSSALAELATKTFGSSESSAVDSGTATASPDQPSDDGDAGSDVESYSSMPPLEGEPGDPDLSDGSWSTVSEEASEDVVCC
Protocol: Immunoprecipitation was carried out according to the Manufacturer's protocol. Briefly, cells were harvested in cold radioimmunoprecipitation assay (RIPA) buffer (50 mM Tris-HC1 [pH 7.4], 150 mM NaCl, 1 mM EDTA, 0.25% sodium deoxycholate, 1% IGEPAL CA-630, 1 mM PMSF, 1 mM NaF, 1 mM Na3VO4 and 1 μg/ml each of aprotinin, leupeptin, and pepstatin). The samples were pre-cleared with Protein A/G Agarose for 10 min at 4° C. and subsequently incubated while gently rotating at 4° C. overnight with primary antibody, followed by Protein A/G beads for 1 h at 4° C. Beads were spun down and washed twice with RIPA buffer. Protein samples were separated by electrophoresis on 4-15% SDS-PAGE gels, and transferred to PVDF membrane, conjugated ubiquitin was detected as described for Western blot analysis using anti-ubiquitin antibody.
This Example investigates whether ZnMP induces polyubquitination of NS5A to gain insight into the mechanism by which ZnMP mediates degradation of NS5A protein. 9-13 cells were treated without or with 10 μM ZnMP for 4 h. Total proteins were extracted for subsequent Western blot or immunoprecipitation analysis. Immunoprecipitation was carried out using anti-HCV NS5A antibody. Ubiquitin conjugation of NS5A [polyubiquitinated NS5A (Ub)n-NS5A]was examined with immunoprecipitation using an anti-HCV NS5A antibody and immunoblot using an anti-ubiquitin antibody. […] In FIG. 6B, ubiquitination of NS5A following ZnMP treatment, or vehicle (DMSO) only was compared. The positions of molecular mass markers (in kilodaltons) are indicated to the left of the gel. The bracket indicates polyubiquitinated NS5A. Asterisks indicate cross-reacting immunoglobulin heavy chain. […] These bands may represent polyubiquitinated NS5A.

## CCC1=C(C)c2cc3[nH]c(cc4nc(cc5[n-]c(cc1n2)c(C)c5CCC(=O)[O-])C(CCC(=O)[O-])=C4C)c(C)c3CC.[H+].[Zn+2] [ZnMP, Zinc mesoporphyrin]
[1]
  viral RNA levels: dose-dependent reduction
[2]
  NS5A protein levels: rapid and profound decrease
[3]
  decrease of HCV RNA levels: ~90%
[4]
  HCV core protein levels: reduction of core
[5]
  polyubquitination of NS5A (summary statement): induce polyubquitination
[5]; 9-13 cells, 10 μM, 4 h, FIG. 6B
  polyubquitination of NS5A: induce polyubquitination
